# Laboratory results as given in patent US10590113B2, “6-hydroxy-4-oxo-1,4-dihydropyrimidine-5-carboxamides as APJ agonists” (priority 2016, dated 2020).
# pEC50: −log10 of the molar value.
# Target: T1, human APJ receptor (Homo sapiens, UniProt P35414)
# T1 construct: expressed in transfected cells; host or cells: HEK293
# T1 sequence (P35414 1-380): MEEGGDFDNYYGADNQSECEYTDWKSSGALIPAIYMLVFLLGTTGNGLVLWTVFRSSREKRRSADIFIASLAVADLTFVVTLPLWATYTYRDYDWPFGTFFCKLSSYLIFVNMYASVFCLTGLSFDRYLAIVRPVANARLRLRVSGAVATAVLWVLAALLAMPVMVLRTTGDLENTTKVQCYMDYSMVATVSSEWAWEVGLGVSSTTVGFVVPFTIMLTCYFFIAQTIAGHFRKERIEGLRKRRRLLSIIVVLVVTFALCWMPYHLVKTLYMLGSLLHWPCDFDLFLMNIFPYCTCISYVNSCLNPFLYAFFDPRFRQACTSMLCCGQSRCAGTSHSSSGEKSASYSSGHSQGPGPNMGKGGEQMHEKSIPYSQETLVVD
# Assay: Intracellular cAMP Accumulation Assay (APJ hcAMP, HTRF)
# Format: cell-based
# Conditions: human APJ, cAMP accumulation; potency range class; read-out: hAPJ cAMP EC50 Potency range
# Procedure, shortened: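 Stably transfected HEK293 cells (5,000/well) incubated 30 min at room temperature with serially diluted compound, […] and 2 μM forskolin. cAMP measured by HTRF after 60 min with detection reagents, quantified against a cAMP standard curve; EC50 from variable-slope sigmoidal fit of inhibition of forskolin-stimulated cAMP.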
row,SMILES,pEC50
1,"CCc1cccc(CC)c1-n1c(-c2cnn(CC)c2)nc(=O)c(C(=O)N2CCC(c3ncc(Cl)cc3F)C2)c1O (single isomer, unassigned) [Example 313, 5-[3-(5-chloro-3-fluoropyridin-2-yl)pyrrolidine-1-carbonyl]-1-(2,6-diethylphenyl)-2-(1-ethyl-1H-pyrazol-4-yl)-6-hydroxy-1,4-dihydropyrimidin-4-one]",8.00 to 11.00
2,"CCc1cccc(CC)c1-n1c(-c2csc(C)n2)nc(=O)c(C(=O)N2CCC(c3ncccc3F)C2)c1O (single isomer, unassigned) [Example 302, 1-(2,6-diethylphenyl)-5-[3-(3-fluoropyridin-2-yl)pyrrolidine-1-carbonyl]-6-hydroxy-2-(2-methyl-1,3-thiazol-4-yl)-1,4-dihydropyrimidin-4-one]",8.00 to 11.00
3,"COc1cccc(OC)c1-n1c(-c2ccn(C)n2)nc(=O)c(C(=O)N2CCC(c3c(F)cccc3F)C2)c1O (single isomer, unassigned) [Example 251, 5-[3-(2,6-difluorophenyl)pyrrolidine-1-carbonyl]-1-(2,6-dimethoxyphenyl)-6-hydroxy-2-(1-methyl-1H-pyrazol-3-yl)-1,4-dihydropyrimidin-4-one]",8.00 to 11.00
4,"CCCc1nc(=O)c(C(=O)N2CC[C@@H](c3ccccc3)C2)c(O)n1[C@@H](COC)c1ccccc1 [Example 330, 6-hydroxy-3-[(1R)-2-methoxy-1-phenylethyl]-5-[(3S)-3-phenylpyrrolidine-l-carbonyl]-2-propyl-3,4-dihydropyrimidin-4-one]",7.00 to 8.00
5,"COc1cccc(OC)c1-n1c(-c2ccc(Cl)cn2)nc(=O)c(C(=O)N2CCC(c3c(F)cccc3F)C2)c1O (single isomer, unassigned) [Example 280, 2-(5-chloropyridin-2-yl)-5-[3-(2,6-difluorophenyl)pyrrolidine-1-carbonyl]-1-(2,6-dimethoxyphenyl)-6-hydroxy-1,4-dihydropyrimidin-4-one]",8.00 to 11.00
6,"COc1cccc(OC)c1-n1c(-c2nc(C)cs2)nc(=O)c(C(=O)N2CCC(c3c(F)cccc3F)C2)c1O (single isomer, unassigned) [Example 271, 5-[3-(2,6-difluorophenyl)pyrrolidine-1-carbonyl]-1-(2,6-dimethoxyphenyl)-6-hydroxy-2-(4-methyl-1,3-thiazol-2-yl)-1,4-dihydropyrimidin-4-one]",8.00 to 11.00
7,"CCc1cccc(CC)c1-n1c(-c2ccn(C3CC3)n2)nc(=O)c(C(=O)N2CCC(c3ncc(F)cc3F)C2)c1O (single isomer, unassigned) [Example 325, 2-(1-cyclopropyl-1H-pyrazol-3-yl)-1-(2,6-diethylphenyl)-5-[3-(3,5-difluoropyridin-2-yl)pyrrolidine-1-carbonyl]-6-hydroxy-1,4-dihydropyrimidin-4-one]",8.00 to 11.00
8,"COc1cccc(OC)c1-n1c(-c2cncc(C)c2)nc(=O)c(C(=O)N2CCC(c3ccccc3F)C2)c1O (single isomer, unassigned) [Example 233, 1-(2,6-dimethoxyphenyl)-5-[3-(2-fluorophenyl)pyrrolidine-1-carbonyl]-6-hydroxy-2-(5-methylpyridin-3-yl)-1,4-dihydropyrimidin-4-one]",8.00 to 11.00

# Same assay, conditions: human APJ, intracellular cAMP accumulation; read-out: hAPJ cAMP EC50 Potency range
row,SMILES,pEC50
1,"CCCCc1nc(=O)c(C(=O)N2CCN(Cc3cccc(F)c3)CC2)c(O)n1-c1c(OC)cccc1OC [Example 69, 2-butyl-1-(2,6-dimethoxyphenyl)-5-{4-[(3-fluorophenyl)methyl]piper-azine-1-carbonyl}-6-hydroxy-1,4-dihydropyrimidin-4-one]",8.00 to 11.00
2,"CCCCc1nc(=O)c(C(=O)N2CCC(c3ccncc3)CC2)c(O)n1-c1c(OC)cccc1OC [Example 71, 2-butyl-1-(2,6-dimethoxyphenyl)-6-hydroxy-5-[4-(pyridin-4-yl)piperidine-1-carbonyl]-1,4-dihydropyrimidin-4-one]",8.00 to 11.00
3,"COc1cccc(OC)c1-n1c(CCC2CC2)nc(=O)c(C(=O)N2CCC(c3ccc(Cl)cn3)C2)c1O (single isomer, unassigned) [Example 170, 5-[3-(5-chloropyridin-2-yl)pyrrolidine-1-carbonyl]-2-(2-cyclopropylethyl)-1-(2,6-dimethoxyphenyl)-6-hydroxy-1,4-dihydropyrimidin-4-one]",8.00 to 11.00
4,"COc1cccc(OC)c1-n1c(COC2CC2)nc(=O)c(C(=O)N2CCC(c3ccccc3F)C2)c1O (single isomer, unassigned) [Example 13, 2-(cyclopropoxymethyl)-1-(2,6-dimethoxyphenyl)-5-(3-(2-fluorophenyl)pyrrolidine-1-carbonyl)-6-hydroxy-pyrimidin-4(1H)-one]",8.00 to 11.00
5,"CCCCc1nc(=O)c(C(=O)N2CC[C@H](c3ccccc3)C2)c(O)n1[C@@H](COC)c1ccccc1 [Example 116, 2-butyl-6-hydroxy-3-[(1R)-2-methoxy-1-phenylethyl]-5-[(3R)-3-phenylpyrrolidine-1-carbonyl]-3,4-dihydropyrimidin-4-one]",8.00 to 11.00
6,"COc1cccc(OC)c1-n1c(COC2CC2)nc(=O)c(C(=O)N2CCC(c3ccc(Cl)cc3)C2)c1O (single isomer, unassigned) [Example 21, 5-(3-(4-chlorophenyl)pyrrolidine-1-carbonyl)-2-(cyclopropoxymethyl)-1-(2,6-dimethoxyphenyl)-6-hydroxypyrimidin-4(1H)-one]",8.00 to 11.00
7,"COc1cccc(OC)c1-n1c(COC(C)C)nc(=O)c(C(=O)N2CCC(c3ccccc3C#N)C2)c1O (single isomer, unassigned) [Example 165, 2-{1-[1-(2,6-dimethoxyphenyl)-6-hydroxy-4-oxo-2-[(propan-2-yloxy)methyl]-1,4-dihydropyrimidine-5-carbonyl]pyrrolidin-3-yl}benzonitrile]",8.00 to 11.00
8,"CCCCc1nc(=O)c(C(=O)N2CCC(c3ccccc3Cl)C2)c(O)n1-c1c(OC)cccc1OC (single isomer, unassigned) [Example 43, 2-butyl-5-[3-(2-chlorophenyl)pyrrolidine-1-carbonyl]-1-(2,6-dimethoxyphenyl)-6-hydroxy-1,4-dihydropyrimidin-4-one]",8.00 to 11.00
9,"CCCCc1nc(=O)c(C(=O)N2CC[C@H](NC(=O)OCc3ccccc3)C2)c(O)n1-c1c(OC)cccc1OC [Example 58, benzyl N-[(3S)-1-[2-butyl-1-(2,6-dimethoxyphenyl)-6-hydroxy-4-oxo-1,4-dihydropyrimidine-5-carbonyl]pyrrolidin-3-yl]carbamate]",7.00 to 8.00
10,"COc1cccc(OC)c1-n1c(COC(C)C)nc(=O)c(C(=O)N2CCC(c3ccccc3C#N)C2)c1O (single isomer, unassigned) [Example 167]",8.00 to 11.00
11,"COc1cccc(OC)c1-n1c(COC2CC2)nc(=O)c(C(=O)N2CCC(c3cccc(F)c3)C2)c1O (centres unmarked) [Example 15, 2-(cyclopropoxymethyl)-1-(2,6-dimethoxyphenyl)-5-(3-(3-fluorophenyl)pyrrolidine-1-carbonyl)-6-hydroxypyrimidin-4(1H)-one]",8.00 to 11.00

# Same assay, conditions: read-out: hAPJ cAMP EC50 Potency range
row,SMILES,pEC50
1,"CCOCc1nc(=O)c(C(=O)N2CCC(Oc3ccc(Cl)cc3)CC2)c(O)n1-c1c(OC)cccc1OC [Example 377, 5-(4-(4-chlorophenoxy)piperidine-1-carbonyl)-1-(2,6-dimethoxyphenyl)-2-(ethoxymethyl)-6-hydroxypyrimidin-4(1H)-one]",8.00 to 11.00
